Laboratory results reported in PubChem BioAssay AID1963441 (Molecular Pharmacology Branch, DTP, NCI, 2024).

Test system: NCI-H1876 complex spheroid growth, % test/control
Experiment: Anticancer human tumor NCI-H1876 cell line growth inhibition [Asc];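 note: compound exposure lasted 7 days starting three days after seeding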;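 for viability, T/C: 100% = DMSO vehicle control wells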
Conditions: for IC50: curve of first compound; for viability, T/C: stronger effect = lower value
Summary of the method: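 Spheroid model: tumor line + HUVEC + hMSC. Single agents and combinations; top conc. at/near clinical Cmax (10 microM if undetermined), half-log dilutions. DMSO stocks at 800-fold test concentration.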

[1] = second compound 0.0316 µM, first compound 0.00316 µM
[2] = second compound 0.0316 µM, first compound 0.01 µM
[3] = second compound 0.0316 µM, first compound 0.0316 µM
[4] = second compound 0.0316 µM, first compound 0.1 µM
[5] = second compound 0.0316 µM, first compound 0.316 µM
[6] = second compound 0.0316 µM, first compound 1 µM
[7] = second compound 0.1 µM, first compound 0.00316 µM
[8] = second compound 0.1 µM, first compound 0.01 µM
[9] = second compound 0.1 µM, first compound 0.0316 µM
[10] = second compound 0.1 µM, first compound 0.1 µM
[11] = second compound 0.1 µM, first compound 0.316 µM
[12] = second compound 0.1 µM, first compound 1 µM
[13] = second compound 0.316 µM, first compound 0.00316 µM
[14] = second compound 0.316 µM, first compound 0.01 µM
[15] = second compound 0.316 µM, first compound 0.0316 µM
[16] = second compound 0.316 µM, first compound 0.1 µM
[17] = second compound 0.316 µM, first compound 0.316 µM
[18] = second compound 0.316 µM, first compound 1 µM
[19] = second compound 1 µM, first compound 0.00316 µM
[20] = second compound 1 µM, first compound 0.01 µM
[21] = second compound 1 µM, first compound 0.0316 µM
[22] = second compound 1 µM, first compound 0.1 µM
[23] = second compound 1 µM, first compound 0.316 µM
[24] = second compound 1 µM, first compound 1 µM
[25] = second compound 3.16 µM, first compound 0.00316 µM
[26] = second compound 3.16 µM, first compound 0.01 µM
[27] = second compound 3.16 µM, first compound 0.0316 µM
[28] = second compound 3.16 µM, first compound 0.1 µM
[29] = second compound 3.16 µM, first compound 0.316 µM
[30] = second compound 3.16 µM, first compound 1 µM
[31] = second compound 10 µM, first compound 0.00316 µM
[32] = second compound 10 µM, first compound 0.01 µM
[33] = second compound 10 µM, first compound 0.0316 µM
[34] = second compound 10 µM, first compound 0.1 µM
[35] = second compound 10 µM, first compound 0.316 µM
[36] = second compound 10 µM, first compound 1 µM

## CNC(C)C(=O)NC1CN(S(=O)(=O)c2cccc(S(=O)(=O)N3CCC4CCC(C(=O)NC(c5ccccc5)c5ccccc5)N4C(=O)C(NC(=O)C(C)NC)C3)c2)CCC2CCC(C(=O)NC(c3ccccc3)c3ccccc3)N2C1=O (stereo unspecified) + Cc1c(S(C)(=O)=O)c(-c2cc(F)cc(N3CCN(c4ccc(NS(=O)(=O)c5ccc(NC(CCN6CCC(C(=O)OCCCP(=O)(O)O)CC6)CSc6ccccc6)c(S(=O)(=O)C(F)(F)F)c5)cc4)CC3)c2)c(-c2ccc(Cl)cc2)n1C(C)C
Second compound 0.0316 µM
  IC50: > 1000 nM
Second compound 0.1 µM
  IC50: > 1000 nM
Second compound 0.316 µM
  IC50: > 1000 nM
Second compound 1 µM
  IC50: > 1000 nM
Second compound 3.16 µM
  IC50: > 1000 nM
Second compound 10 µM
  IC50: > 1000 nM
[1]
  viability, T/C: 95.1%
[2]
  viability, T/C: 96.4%
[3]
  viability, T/C: 98%
[4]
  viability, T/C: 97.8%
[5]
  viability, T/C: 103%
[6]
  viability, T/C: 103%
[7]
  viability, T/C: 91.3%
[8]
  viability, T/C: 96.2%
[9]
  viability, T/C: 95%
[10]
  viability, T/C: 98.8%
[11]
  viability, T/C: 105%
[12]
  viability, T/C: 98.7%
[13]
  viability, T/C: 101%
[14]
  viability, T/C: 102%
[15]
  viability, T/C: 97.2%
[16]
  viability, T/C: 97.3%
[17]
  viability, T/C: 103%
[18]
  viability, T/C: 104%
[19]
  viability, T/C: 94%
[20]
  viability, T/C: 91.6%
[21]
  viability, T/C: 91.6%
[22]
  viability, T/C: 100%
[23]
  viability, T/C: 112%
[24]
  viability, T/C: 92.7%
[25]
  viability, T/C: 99.9%
[26]
  viability, T/C: 87.2%
[27]
  viability, T/C: 96.1%
[28]
  viability, T/C: 88.1%
[29]
  viability, T/C: 101%
[30]
  viability, T/C: 91.8%
[31]
  viability, T/C: 97.4%
[32]
  viability, T/C: 97.4%
[33]
  viability, T/C: 88.3%
[34]
  viability, T/C: 110%
[35]
  viability, T/C: 102%
[36]
  viability, T/C: 101%

## NC1CCC(NC2CC2c2ccccc2)CC1 (stereo unspecified) + Cc1c(S(C)(=O)=O)c(-c2cc(F)cc(N3CCN(c4ccc(NS(=O)(=O)c5ccc(NC(CCN6CCC(C(=O)OCCCP(=O)(O)O)CC6)CSc6ccccc6)c(S(=O)(=O)C(F)(F)F)c5)cc4)CC3)c2)c(-c2ccc(Cl)cc2)n1C(C)C
Second compound 0.0316 µM
  IC50: > 100 nM
Second compound 0.1 µM
  IC50: > 100 nM
Second compound 0.316 µM
  IC50: > 100 nM
Second compound 1 µM
  IC50: > 100 nM
Second compound 3.16 µM
  IC50: > 100 nM
Second compound 10 µM
  IC50: > 100 nM
Second compound 0.0316 µM, first compound 0.000316 µM
  viability, T/C: 111%
Second compound 0.0316 µM, first compound 0.001 µM
  viability, T/C: 101%
[1]
  viability, T/C: 99.3%
[2]
  viability, T/C: 106%
[3]
  viability, T/C: 109%
[4]
  viability, T/C: 119%
Second compound 0.1 µM, first compound 0.000316 µM
  viability, T/C: 114%
Second compound 0.1 µM, first compound 0.001 µM
  viability, T/C: 103%
[7]
  viability, T/C: 105%
[8]
  viability, T/C: 110%
[9]
  viability, T/C: 103%
[10]
  viability, T/C: 112%
Second compound 0.316 µM, first compound 0.000316 µM
  viability, T/C: 99.6%
Second compound 0.316 µM, first compound 0.001 µM
  viability, T/C: 103%
[13]
  viability, T/C: 113%
[14]
  viability, T/C: 101%
[15]
  viability, T/C: 120%
[16]
  viability, T/C: 106%
Second compound 1 µM, first compound 0.000316 µM
  viability, T/C: 97.5%
Second compound 1 µM, first compound 0.001 µM
  viability, T/C: 97.7%
[19]
  viability, T/C: 93.1%
[20]
  viability, T/C: 93.9%
[21]
  viability, T/C: 109%
[22]
  viability, T/C: 114%
Second compound 3.16 µM, first compound 0.000316 µM
  viability, T/C: 103%
Second compound 3.16 µM, first compound 0.001 µM
  viability, T/C: 112%
[25]
  viability, T/C: 98.2%
[26]
  viability, T/C: 104%
[27]
  viability, T/C: 110%
[28]
  viability, T/C: 98.9%
Second compound 10 µM, first compound 0.000316 µM
  viability, T/C: 118%
Second compound 10 µM, first compound 0.001 µM
  viability, T/C: 105%
[31]
  viability, T/C: 101%
[32]
  viability, T/C: 103%
[33]
  viability, T/C: 111%
[34]
  viability, T/C: 108%

## C=CC(=O)N1CCN(c2nc(=O)n(-c3c(C)ccnc3C(C)C)c3nc(-c4c(O)cccc4F)c(F)cc23)C(C)C1 (stereo unspecified) + Cc1c(S(C)(=O)=O)c(-c2cc(F)cc(N3CCN(c4ccc(NS(=O)(=O)c5ccc(NC(CCN6CCC(C(=O)OCCCP(=O)(O)O)CC6)CSc6ccccc6)c(S(=O)(=O)C(F)(F)F)c5)cc4)CC3)c2)c(-c2ccc(Cl)cc2)n1C(C)C
Second compound 0.0316 µM
  IC50: > 10000 nM
Second compound 0.1 µM
  IC50: > 10000 nM
Second compound 0.316 µM
  IC50: > 10000 nM
Second compound 1 µM
  IC50: > 10000 nM
Second compound 3.16 µM
  IC50: > 10000 nM
Second compound 10 µM
  IC50: > 10000 nM
[3]
  viability, T/C: 91%
[4]
  viability, T/C: 89.5%
[5]
  viability, T/C: 107%
[6]
  viability, T/C: 95.2%
Second compound 0.0316 µM, first compound 3.16 µM
  viability, T/C: 103%
Second compound 0.0316 µM, first compound 10 µM
  viability, T/C: 109%
[9]
  viability, T/C: 85.7%
[10]
  viability, T/C: 99.6%
[11]
  viability, T/C: 101%
[12]
  viability, T/C: 106%
Second compound 0.1 µM, first compound 3.16 µM
  viability, T/C: 108%
Second compound 0.1 µM, first compound 10 µM
  viability, T/C: 107%
[15]
  viability, T/C: 91.1%
[16]
  viability, T/C: 114%
[17]
  viability, T/C: 97.6%
[18]
  viability, T/C: 103%
Second compound 0.316 µM, first compound 3.16 µM
  viability, T/C: 109%
Second compound 0.316 µM, first compound 10 µM
  viability, T/C: 104%
[21]
  viability, T/C: 105%
[22]
  viability, T/C: 99.4%
[23]
  viability, T/C: 111%
[24]
  viability, T/C: 98.6%
Second compound 1 µM, first compound 3.16 µM
  viability, T/C: 110%
Second compound 1 µM, first compound 10 µM
  viability, T/C: 114%
[27]
  viability, T/C: 96.4%
[28]
  viability, T/C: 95.3%
[29]
  viability, T/C: 102%
[30]
  viability, T/C: 97.8%
Second compound 3.16 µM, first compound 3.16 µM
  viability, T/C: 114%
Second compound 3.16 µM, first compound 10 µM
  viability, T/C: 96.7%
[33]
  viability, T/C: 99.2%
[34]
  viability, T/C: 96.5%
[35]
  viability, T/C: 99.6%
[36]
  viability, T/C: 116%
Second compound 10 µM, first compound 3.16 µM
  viability, T/C: 106%
Second compound 10 µM, first compound 10 µM
  viability, T/C: 95.1%
